{"source": "patent US5539123A", "about": "“Low molecular weight thiocarbamates as inhibitors of elastase, uses and method of synthesis” (University of Kentucky Research Foundation, priority 1994, dated 1996)", "test_system": "Zymosan Induced Inflammation", "test": "Zymosan-induced paw inflammation (arthritis) in rats, percent volume increase of the paw", "format": "in vivo, rat", "conditions": "for % Oedema Volume change: 3.6 × 10^-5 mg/g IP vs control", "excerpt": "A reversible arthritic condition was induced according to known procedures for the Zymosan-induced arthritis (See J. P. Tarayre, A. Delphon, et al., Pharmacological studies in zymosan inflammation in rats and mice, I: Zymosan-induced paw edema in rat and mice, Pharmacological Research, 21, (#4) 375-384 (1989); Takuo Sato, Yoshitaka Ino, et al., Inhibitory effects of a novel synthetic protease inhibitor (FUT-175), on the paw edema in rats and Zymosan-induced compliment activation in vitro, Japan J. Pharmacol., 42,587-589 (1986); David K. Gremmell, et al., Comparative effects of drugs on four paw edema models on the rat, Agents and Actions 4, (#1) 107-116 (1979); and D. C. Keystone, et al., Zymosan-induced arthritis: A model of chronic proliferative arthritis following activation of the alternative pathway of compliment, Arthritis and Rheumatism 20 (#7) 1396-1401 (1977)).\nEach rat (250 g each) was kept in a restraining cage with light ether anesthesia until the administration of the drug. The procedure involves the intramuscular (IM) injection of 1 mg of Zymosan in 50 μL (microliters) of normal saline in the pad of a hind paw of the rat. Swelling becomes evident within 20 minutes and reaches a maximum within 1.5 hours. The swelling disappears after 24 hours. In the Figures the reversal to normal size of the paw within 24 hours is not shown. The degree of swelling is measured by a water displacement method and the percent (%) of volume increase of the paw is plotted against time (see J. P. Tarayre, A. Delphon, et al., Pharmacological studies in zymosan inflammation in rats and mice. I: Zymosan-induced paw edema in rat and mice, Pharmaco-logical Research, 21, (#4) 375-384 (1989); Takuo Sato, Yoshitaka Ino, et al., Inhibitory effects of a novel synthetic protease inhibitor (FUT-175), on the paw edema in rats and Zymosan-induced compliment activation in vitro, Japan J. Pharmacol., 42, 587-589 (1986)).\nControl was conducted by injecting I.P. 100 μl of propylene glycol (the vehicle) 15 min. prior to Zymosan administration. […] Data from tables 1 and 1a are plotted in FIGS. 1 and 1a respectively.\nIn the experimental procedure the drug [PC-16, […] (FIG. 2) or 90 μg/rat (FIG. 3)] is dissolved in 100 μL of propylene glycol and is injected IP to the rats. Fifteen minutes later the Zymosan (1mg/50 μL of normal saline) solution is injected IM into the paw of the rats. The degree of swelling is subsequently measured at various time intervals for a period of 24 hours and is reported up to 4 hours.", "key": {"[1]": {"conditions": "3.6 × 10^-4 mg/g IP, time (min) = first number of the line"}}, "note": "Several values for one entry are separate records, joined by “and”; a condition that tells them apart may be missing. Equal entries are not always repeated. Entries after “also recorded” stand apart in the source; their conditions may differ."}
{"smiles": "CCCCNC(=O)Sc1nnnn1-c1ccccc1", "note": "[PC-16]", "values": [{"measurement": "% Volume Increase", "setting": "3.6 × 10^-4 mg/g IP, 205 min", "value": 3.41, "unit": "%"}, {"measurement": "% Volume Increase, Mean of 3 experiments", "setting": "3.6 × 10^-4 mg/g IP, 210 min", "value": 3.48, "unit": "%"}, {"measurement": "% Volume Increase, Mean of 3 experiments", "setting": "3.6 × 10^-4 mg/g IP, 220 min", "value": 3.30, "unit": "%"}, {"measurement": "% Volume Increase", "setting": "3.6 × 10^-4 mg/g IP, 225 min", "value": 3.32, "unit": "%"}, {"measurement": "% Volume Increase, Mean of 3 experiments", "setting": "3.6 × 10^-4 mg/g IP, 230 min", "value": 3.34, "unit": "%"}, {"measurement": "% Volume Increase, Mean of 3 experiments", "setting": "3.6 × 10^-4 mg/g IP, 240 min", "value": 2.93, "unit": "%"}, {"measurement": "% Volume Increase, Experiment #3", "setting": "[1]", "value": "0.00% and 1.02% and 1.55% and 2.18% and 2.75% and 3.44% and 3.50%"}, {"measurement": "Volume, Experiment #3", "setting": "[1]", "value": "1.65 mL and 1.67 mL and 1.68 mL and 1.69 mL and 1.70 mL and 1.71 mL"}, {"measurement": "% Oedema Volume change", "setting": "10 min", "value": 28.0, "unit": "%"}, {"measurement": "% Oedema Volume change", "setting": "20 min", "value": -42.8, "unit": "%"}, {"measurement": "% Oedema Volume change", "setting": "30 min", "value": -54.1, "unit": "%"}, {"measurement": "% Oedema Volume change", "setting": "40 min", "value": -58.3, "unit": "%"}, {"measurement": "% Oedema Volume change", "setting": "50 min", "value": -60.8, "unit": "%"}, {"measurement": "% Oedema Volume change", "setting": "60 min", "value": -65.8, "unit": "%"}, {"measurement": "% Oedema Volume change", "setting": "65 min", "value": -64.8, "unit": "%"}, {"measurement": "% Oedema Volume change", "setting": "70 min", "value": -65.7, "unit": "%"}, {"measurement": "% Oedema Volume change", "setting": "80 min", "value": -63.9, "unit": "%"}, {"measurement": "% Oedema Volume change", "setting": "95 min", "value": -66.4, "unit": "%"}, {"measurement": "% Oedema Volume change", "setting": "100 min", "value": -68.2, "unit": "%"}, {"measurement": "% Oedema Volume change", "setting": "105 min", "value": -68.7, "unit": "%"}, {"measurement": "% Oedema Volume change", "setting": "115 min", "value": -69.9, "unit": "%"}, {"measurement": "% Oedema Volume change", "setting": "120 min", "value": -69.6, "unit": "%"}, {"measurement": "% Oedema Volume change", "setting": "130 min", "value": -68.8, "unit": "%"}, {"measurement": "% Oedema Volume change", "setting": "135 min", "value": -65.8, "unit": "%"}, {"measurement": "% Oedema Volume change", "setting": "145 min", "value": -64.6, "unit": "%"}, {"measurement": "% Oedema Volume change", "setting": "150 min", "value": -67.7, "unit": "%"}, {"measurement": "% Oedema Volume change", "setting": "160 min", "value": -67.4, "unit": "%"}, {"measurement": "% Oedema Volume change", "setting": "175 min", "value": -66.7, "unit": "%"}, {"measurement": "% Oedema Volume change", "setting": "190 min", "value": -69.2, "unit": "%"}, {"measurement": "% Oedema Volume change", "setting": "200 min", "value": -67.6, "unit": "%"}, {"measurement": "% Oedema Volume change", "setting": "205 min", "value": -65.6, "unit": "%"}, {"measurement": "% Oedema Volume change", "setting": "210 min", "value": -63.4, "unit": "%"}, {"measurement": "% Oedema Volume change", "setting": "220 min", "value": -61.2, "unit": "%"}, {"measurement": "% Oedema Volume change", "setting": "225 min", "value": -61.9, "unit": "%"}, {"measurement": "% Oedema Volume change", "setting": "240 min", "value": -62.7, "unit": "%"}, {"measurement": "% Volume Increase, Mean of 3 experiments", "setting": "3.6 × 10^-5 mg/g IP, 0 min", "value": 0.00, "unit": "%"}, {"measurement": "% Volume Increase, Mean of 3 experiments", "setting": "3.6 × 10^-5 mg/g IP, 10 min", "value": 12.2, "unit": "%"}, {"measurement": "% Volume Increase, Mean of 3 experiments", "setting": "3.6 × 10^-5 mg/g IP, 20 min", "value": 16.3, "unit": "%"}, {"measurement": "% Volume Increase, Mean of 3 experiments", "setting": "3.6 × 10^-5 mg/g IP, 30 min", "value": 17.3, "unit": "%"}, {"measurement": "% Volume Increase, Mean of 3 experiments", "setting": "3.6 × 10^-5 mg/g IP, 40 min", "value": 18.8, "unit": "%"}, {"measurement": "% Volume Increase, Mean of 3 experiments", "setting": "3.6 × 10^-5 mg/g IP, 50 min", "value": 19.1, "unit": "%"}, {"measurement": "% Volume Increase, Mean of 3 experiments", "setting": "3.6 × 10^-5 mg/g IP, 60 min", "value": 19.5, "unit": "%"}, {"measurement": "% Volume Increase, Mean of 3 experiments", "setting": "3.6 × 10^-5 mg/g IP, 65 min", "value": 19.8, "unit": "%"}, {"measurement": "% Volume Increase, Mean of 3 experiments", "setting": "3.6 × 10^-5 mg/g IP, 70 min", "value": 20.0, "unit": "%"}, {"measurement": "% Volume Increase, Mean of 3 experiments", "setting": "3.6 × 10^-5 mg/g IP, 80 min", "value": 20.5, "unit": "%"}, {"measurement": "% Volume Increase, Mean of 3 experiments", "setting": "3.6 × 10^-5 mg/g IP, 95 min", "value": 19.7, "unit": "%"}, {"measurement": "% Volume Increase, Mean of 3 experiments", "setting": "3.6 × 10^-5 mg/g IP, 100 min", "value": 18.6, "unit": "%"}, {"measurement": "% Volume Increase, Mean of 3 experiments", "setting": "3.6 × 10^-5 mg/g IP, 105 min", "value": 18.4, "unit": "%"}, {"measurement": "% Volume Increase, Mean of 3 experiments", "setting": "3.6 × 10^-5 mg/g IP, 115 min", "value": 17.9, "unit": "%"}, {"measurement": "% Volume Increase, Mean of 3 experiments", "setting": "3.6 × 10^-5 mg/g IP, 120 min", "value": 17.7, "unit": "%"}, {"measurement": "% Volume Increase, Mean of 3 experiments", "setting": "3.6 × 10^-5 mg/g IP, 130 min", "value": 17.7, "unit": "%"}, {"measurement": "% Volume Increase, Mean of 3 experiments", "setting": "3.6 × 10^-5 mg/g IP, 135 min", "value": 17.7, "unit": "%"}, {"measurement": "% Volume Increase, Mean of 3 experiments", "setting": "3.6 × 10^-5 mg/g IP, 145 min", "value": 17.7, "unit": "%"}, {"measurement": "% Volume Increase, Mean of 3 experiments", "setting": "3.6 × 10^-5 mg/g IP, 150 min", "value": 15.6, "unit": "%"}, {"measurement": "% Volume Increase, Mean of 3 experiments", "setting": "3.6 × 10^-5 mg/g IP, 160 min", "value": 15.2, "unit": "%"}, {"measurement": "% Volume Increase, Mean of 3 experiments", "setting": "3.6 × 10^-5 mg/g IP, 175 min", "value": 14.4, "unit": "%"}, {"measurement": "% Volume Increase, Mean of 3 experiments", "setting": "3.6 × 10^-5 mg/g IP, 190 min", "value": 12.6, "unit": "%"}, {"measurement": "% Volume Increase, Mean of 3 experiments", "setting": "3.6 × 10^-5 mg/g IP, 200 min", "value": 13.3, "unit": "%"}, {"measurement": "% Volume Increase, Mean of 3 experiments", "setting": "3.6 × 10^-5 mg/g IP, 205 min", "value": 13.5, "unit": "%"}, {"measurement": "% Volume Increase, Mean of 3 experiments", "setting": "3.6 × 10^-5 mg/g IP, 210 min", "value": 13.6, "unit": "%"}, {"measurement": "% Volume Increase, Mean of 3 experiments", "setting": "3.6 × 10^-5 mg/g IP, 220 min", "value": 13.6, "unit": "%"}, {"measurement": "% Volume Increase, Mean of 3 experiments", "setting": "3.6 × 10^-5 mg/g IP, 225 min", "value": 12.4, "unit": "%"}, {"measurement": "% Volume Increase, Mean of 3 experiments", "setting": "3.6 × 10^-5 mg/g IP, 240 min", "value": 12.1, "unit": "%"}, {"measurement": "oedema reduction of rat paw", "setting": "injected prior to Zymosan, compared with control", "value": "impressive oedema reduction; also recorded: impressive reduction in edema swelling"}]}
